Here are results for three molecules from article PMC9590610 (Chemical biology & drug design, 2020).

For assay [1], the target named is FAK (focal adhesion kinase) FERM domain (Homo sapiens, UniProt Q05397). It counts as binding.
In assay [2] the target is Recombinant HER2-ICD (Intracellular Domain) (human, UniProt P04626 676-1255).

For the molecule `Cc1nc(SC(C)C(=O)Nc2ccc3[nH]c(=O)[nH]c3c2)n(C2CCCC2)c1C` (racemic) [VS4, (rac)-2-((1-cyclopentyl-4,5-dimethyl-1H-imidazol-2-yl)thio)-N-(2-oxo-2,3-dihydro-1H-benzo[d]imidazol-5-yl)propanamide], the IC50 in assay [1] was 170 nM. This lies in the sub-micromolar range.

In assay [1], `CC(Oc1ccc(C(=O)NCCN2CCN(C)CC2c2ccccc2)cn1)c1ccccc1` (racemic) [VS14, (rac)-N-(2-(4-methyl-2-phenylpiperazin-1-yl)ethyl)-6-(1-phenylethoxy)nicotinamide] displayed an IC50 of 187 nM.

B1: GST-FAK-NT (FERM) (domain or fragment, UniProt Q05397 35-355, looked up)
chain: RVLKVFHYFESNSEPTTWASIIRHGDATDVRGIIQKIVDSHKVKHVACYGFRLSHLRSEEVHWLHVDMGVSSVREKYELAHPPEEWKYELRIRYLPKGFLNQFTEDKPTLNFFYQQVKSDYMLEIADQVDQEIALKLGCLEIRRSYWEMRGNALEKKSNYEVLEKDVGLKRFFPKSLLDSVKAKTLRKLIQQTFRQFANLNREESILKFFEILSPVYRFDKECFKCALGSSWIISVELAIGPEEGISYLTDKGCNPTHLADFTQVQTIQYSNSEDKDRKGMLQLKIAGAPEPLTVTAPSLTIAENMADLIDGYCRLVNGTS
Take B1: the Kd in assay [2] amounted to 571 nM.

In general, IC50 refers to the point on the concentration scale where inhibition reaches its midpoint. Low readings indicate greater potency in that assay, high ones weaker potency in that assay. For orientation: Kd means the free concentration of one partner at which half of the binding sites on the other are occupied at equilibrium, for simple one-to-one binding.
